# Experimental data from US6242478A, “Five member ring sulfenate esters and thiosulfinate esters” (Wake Forest University, priority 1999, dated 2001).
# Read-outs that look alike come from different tables or passages of the source.
# What was measured:
# [1] = system: DT-diaphorase (NQO1) mRNA; test: NQO1 mRNA induction, Northern blot; format: cell-based, mouse; details: 80 μM, 24 hours
# Procedure: (§1) BNL.CL2 cells were treated with Oltipraz, compound 121 described above, and compound 123 described above. All compounds were applied to the cells at 100 micromolar concentration for 24 hours.
# (§2) Cells were exposed to compounds at a final concentration of 80 μM for 24 hours. RNA was isolated and analyzed by Northern blotting for the expression of the indicated genes. Control cells were incubated with vehicle alone (0.4% DMSO).
# (§3) Northern blot: Treatment of BNL.CL2 cells with 100 μM Oltipraz, ALH-556, and ALH-562, ALH-561, ED 13.4, ED 14.6, DCF 070, ALH-490
# (§4) BNL.CL2 cells (normal mouse embryonic liver cell line) were plated at ~3×10^5 cells/ml, grown for 16-24 hours, and treated with 0 μM and 100 μM Oltipraz, ALH-556 (121), and ALH-562 (123) for 24 hours. All three compounds were dissolved in DMSO and the final DMSO concentration present in all treatment conditions was 0.2%. BNL.CL2 cells were harvested by trypsinization and total RNA was isolated using the Trizol reagent (Gibco BRL) according to the manufacturer's procedures. 15 μg of RNA were run on a 1.1% agarose/6.6% formaldehyde gel and transferred overnight onto nitrocellulose membranes by capillary transfer using 20×SSC as transfer buffer. Subsequent to RNA transfer, the nitrocellulose membrane was baked at 80° C. for 2 hours. RNA was analyzed using a radiolabeled mouse ferritin H and human GST-α c-DNA. A human β-actin probe was used as an internal standard. The c-DNA probes were labeled with [α^32 P]dCTP by a random prime labeling. Hybridization of the c-DNA probes to the nitrocellulose membrane was performed at 68° C. for 60 minutes using the Quick-Hyb solution (Stratagene). Membranes were subjected to phosphoimager analysis after hybridization.
# [2] = system: GST; details: mice; cited from earlier work
# [3] = system: Ferritin H mRNA; test: Ferritin H mRNA induction, Northern blot; format: cell-based, mouse; details: 80 μM, 24 hours
# Procedure: as §1, §2, §3, §4
# [4] = system: phase II enzymes; details: in words; cited from earlier work
# [5] = system: GST; details: rats; cited from earlier work
# [6] = Dimitrov et al., 1992; cited from earlier work
# [7] = system: HIV-1; details: Prochaska et al., 1993; cited from earlier work
# [8] = system: GST alpha mRNA in BNL.CL2 cells; test: GST alpha mRNA induction, Northern blot; format: cell-based, mouse; details: 24 hours
# Procedure: as §1, §2, §3, §4
# [9] = system: Sp1; details: in words; cited from earlier work
# [10] = system: HIV-1ADA; details: fresh human monocyte/macrophage cultures, cited from earlier work
# [11] = system: poly (ADP-ribose) polymerase (PARP); details: in words; cited from earlier work
# [12] = system: CEM-SS cells; details: cited from earlier work
# [13] = system: NCp7 protein; details: cited from earlier work; for ejection of zinc from NCp7: in words
# [14] = system: HeLa nuclear extract; details: CMV promoter, duck HBV sequence; cited from earlier work
# [15] = system: HIV-1RF; details: cited from earlier work
# [16] = system: fresh human monocyte/macrophage cultures; details: toxicity; cited from earlier work
# [17] = system: GATA-1; details: in words; cited from earlier work
# [18] = target: T1, NCp7 (Human immunodeficiency virus type 1 group M subtype B, UniProt P12493); details: 50 μM, reference compounds; cited from earlier work
# T1 construct: HIV-1 nucleocapsid protein (NCp7)
# [19] = system: enzymatic activities of the viral replication cycle; details: in words; cited from earlier work
compound,measurement,setting,value
Cc1c(-c2cnccn2)ssc1=S [Oltipraz],NQO1 induction (mRNA),[1],+
same,elevation of GST levels,[2],elevate levels of GST
same,Ferritin H induction (mRNA),[3],+
same,induction of phase I / phase II enzymes,[4],monofunctional inducers
same,elevation of GST levels,[5],elevate levels of GST
same,toxicities,[6],"photosensitivity/heat intolerance, GI effects, and neurologic toxicities"
same,prevention of HIV-1 replication,[7],prevent HIV-1 replication
same,GST α induction (mRNA),"[8]; 80 μM, Northern blot",+
same,activation at 100 µM,"[8]; Mus musculus, BNL CL.2, BNL.CL2 cells, 100 micromolar, read-out: increase in GST alpha mRNA levels",340%
O=S1(=O)C[C@H](O)[C@H](O)CS1 (relative stereo) [compound 8],specific binding of Sp1 to DNA target,[9],does not affect poly (ADP-ribose) polymerase (PARP) activity or alter specific binding
same,EC50,[10]; HIV-1ADA,8 µM
same,activity against replication of monocytotropic HIV-1ADA,[10]; in words,active
same,effect on PARP activity,[11],does not affect
same,IC50,"[12]; toxicity, CEM-SS cells, read-out: XTT assay IC50",184 µM
same,IC50,"[12]; two fold excess of glutathione (GSH), read-out: XTT assay IC50 with GSH",> 200 µM
same,ejection of zinc from NCp7,[13],promoted ejection of zinc
same,ejection of zinc from NCp7,[13]; listed as NSC 624151 (8),found to promote zinc ejection from the NCp7 protein
same,TSQ NCp7 Assay,[13]; unit not given,17
same,in vitro transcription,[14],did not significantly alter
same,EC50,"[15]; CEM-SS cells, HIV-1RF, read-out: XTT assay EC50",6.6 µM
same,activity against HIV-1 in XTT-based cytoprotection assay,[15]; in words,active
same,EC50,"[15]; two fold excess of glutathione (GSH), read-out: XTT assay EC50 with GSH",64.2 µM
same,IC50,[16],> 100 µM
same,specific binding of GATA-1 to DNA target,[17],does not affect poly (ADP-ribose) polymerase (PARP) activity or alter specific binding
same,"NCp7 Trp37 Assay, % Decrease RFU/30 min, without GSH",[18],17 % Decrease RFU/30 min
same,effect on enzymatic activities of the viral replication cycle,[19],no other observable effect
